How the values were obtained:
[1] = test system: synthesis of LTB4 in human whole blood; experiment: human whole blood LTB4 production inhibition assay; format: cell-based; conditions: Homo sapiens, heparinized human whole blood, calcimycin 20 μM; read-out: hWB LTB4 IC50
Procedure: Compounds are additionally tested in a human whole blood assay to determine their ability to inhibit the synthesis of LTB4 in a cellular system. Compounds are combined with heparinized human whole blood and incubated for 15 minutes at 37° C. Calcimycin (20 μM final, prepared in phosphate-buffered saline, pH 7.4) is then added and the mixture is incubated for another 30 minutes at 37° C. The samples are centrifuged for 5 min at low speed (1500×g) and the plasma layer is removed. Plasma LTB4 concentrations are then measured using an antibody-based homogenous time-resolved fluorescence method (CisBio, Bedford, Mass.).

[2] = molecular target: T1, recombinant human FLAP protein (Homo sapiens, UniProt P20292); experiment: FLAP binding assay (Scintillation Proximity Assay, displacement of [125I]L-691,831); conditions: recombinant human FLAP membranes, [125I]L-691,831 probe; read-out: FLAP SPA IC50
T1 construct: made in house; host or cells: Sf9 insect cells (100,000 x g membrane fraction)
T1 sequence (P20292 1-161): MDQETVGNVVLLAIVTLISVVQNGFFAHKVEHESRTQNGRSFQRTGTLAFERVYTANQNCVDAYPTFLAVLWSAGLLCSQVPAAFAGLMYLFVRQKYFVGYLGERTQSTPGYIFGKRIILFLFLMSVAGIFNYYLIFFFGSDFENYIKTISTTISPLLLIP
Procedure: Cell pellets produced from sf9 insect cells expressing recombinant human FLAP protein are resuspended in buffer A [15 mM Tris-HCl (pH 7.5), 2 mM MgCl2, 0.3 mM EDTA, 1 mM PMSF]. The cells are lysed with a Dounce homogenizer and the material is centrifuged at 10,000×g for 10 minutes. The supernatant is then collected and centrifuged at 100,000×g for 60 minutes. To prepare membrane protein for an assay, an aliquot of the 100,000×g pellet is resuspended in 1 ml of buffer A, Dounce homogenized, and finally subjected to polytron mixing (30 seconds). Membrane protein (25 μl, 5 μg) is mixed with WGA SPA beads (Amersham) and stirred for 1 h.

Structure (SMILES) | IC50 [1] [nM] | IC50 [2] [nM]
COc1cc(-c2nc(C3(c4ccc(-c5cnc(N)nc5)cc4)CCC3)no2)on1 [Example 33, 5-(4-{1-[5-(3-Methoxy-isoxazol-5-yl)-1,2,4-oxadiazol-3-yl]-cyclobutyl}-phenyl)-pyrimidin-2-ylamine] | 550 | 4
Cc1cccc(-c2nc(C3(c4ccc(-c5cnc(N)nc5)cc4)CCC3)no2)c1 [Example 34, 5-{4-[1-(5-m-tolyl-1,2,4-oxadiazol-3-yl)-cyclobutyl]-phenyl}-pyrimidin-2-ylamine] | 780 | 7.7
Cc1ccc(-c2nc(C3(c4ccc(-c5cnc(N)nc5)cc4)CCC3)no2)cc1 [Example 35, 5-{4-[1-(5p-Tolyl-1,2,4-oxadiazol-3-yl)-cyclobutyl]-phenyl}-pyrimidin-2-ylamine] | 600 | 3.6
CS(=O)(=O)c1ccc(-c2nc(C3(c4ccc(-c5cnc(N)nc5)cc4)CCC3)no2)cc1 [Example 36, 5-(4-{1-[5-(4-Methanesulfonyl-phenyl)-1,2,4-oxadiazol-3-yl]-cyclobutyl}-phenyl)-pyrimidin-2-ylamine] | 260 | 4.3
Nc1cc(-c2nc(C3(c4ccc(-c5cnc(N)nc5)cc4)CCC3)no2)ccn1 [Example 37, 5-(4-{1-[5-(2-Amino-pyridin-4-yl)-1,2,4-oxadiazol-3-yl]-cyclobutyl}-phenyl)-pyrimidin-2-ylamine] | 340 | 3.7
Nc1ncc(-c2ccc(C3(c4noc(-c5ccc(S(N)(=O)=O)cc5)n4)CCC3)cc2)cn1 [Example 38, 4-(3-{1-[4-(2-Amino-pyrimidin-5-yl)-phenyl]-cyclobutyl}-1,2,4-oxadiazol-5-yl)-benzenesulfonamide] | > 5000 | 2.4
CS(=O)(=O)c1cccc(-c2nc(C3(c4ccc(-c5cnc(N)nc5)cc4)CCC3)no2)c1 [Example 39, 5-(4-{1-[5-(3-Methanesulfonyl-phenyl)-1,2,4-oxadiazol-3-yl]-cyclobutyl}-phenyl)-pyrimidin-2-ylamine] | 800 | 12
Nc1ncc(-c2ccc(C3(c4noc(-c5c[nH]nn5)n4)CCC3)cc2)cn1 [Example 40, 5-(4-{1-[5-(1H-1,2,3-Triazol-4-yl)-1,2,4-oxadiazol-3-yl]-cyclobutyl}-phenyl)-pyrimidin-2-ylamine] | 2100 | 4.7
N#Cc1cccc(-c2nc(C3(c4ccc(-c5cnc(N)nc5)cc4)CCC3)no2)c1 [Example 41, 3-(3-{1-[4-(2-Amino-pyrimidin-5-yl)-phenyl]-cyclobutyl}-1,2,4-oxadiazol-5-yl)-benzonitrile] | 930 | 8.1
N#Cc1ccc(-c2nc(C3(c4ccc(-c5cnc(N)nc5)cc4)CCC3)no2)cc1 [Example 42, 4-(3-{1-[4-(2-Amino-pyrimidin-5-yl)-phenyl]-cyclobutyl}-1,2,4-oxadiazol-5-yl)-benzonitrile] | 690 | 8.4
Nc1ncc(-c2ccc(C3(c4noc(-c5cccc(O)c5)n4)CCC3)cc2)cn1 [Example 43, 3-(3-{1-[4-(2-Amino-pyrimidin-5-yl)-phenyl]-cyclobutyl}-1,2,4-oxadiazol-5-yl)-phenol] | 230 | 3.2
Nc1ncc(-c2ccc(C3(c4noc(-c5ccc(O)cc5)n4)CCC3)cc2)cn1 [Example 44, 4-(3-{1-[4-(2-Amino-pyrimidin-5-yl)-phenyl]-cyclobutyl}-1,2,4-oxadiazol-5-yl)-phenol] | 75 | 3.1
Nc1ncc(-c2ccc(C3(c4noc(-c5cccc(Cl)c5)n4)CCC3)cc2)cn1 [Example 45, 5-(4-{1-[5-(3-Chloro-phenyl)-1,2,4-oxadiazol-3-yl]-cyclobutyl}-phenyl)-pyrimidin-2-ylamine] | 950 | 7.9
Nc1ncc(-c2ccc(C3(c4noc(-c5ccc(Cl)cc5)n4)CCC3)cc2)cn1 [Example 46, 5-(4-{1-[5-(4-Chloro-phenyl)-1,2,4-oxadiazol-3-yl]-cyclobutyl}-phenyl)-pyrimidin-2-ylamine] | 1500 | 7.5
Nc1ncc(-c2ccc(C3(c4noc(-c5cccc(S(N)(=O)=O)c5)n4)CCC3)cc2)cn1 [Example 47, 3-(3-{1-[4-(2-Amino-pyrimidin-5-yl)-phenyl]-cyclobutyl}-1,2,4-oxadiazol-5-yl)-benzenesulfonamide] | 2400 | 15
COc1ccc(-c2nc(C3(c4ccc(-c5cnc(N)nc5)cc4)CCC3)no2)cc1 [Example 48, 5-(4-{1-[5-(4-Methoxy-phenyl)-1,2,4-oxadiazol-3-yl]-cyclobutyl}-phenyl)-pyrimidin-2-ylamine] | 430 | 2.5
COc1cccc(-c2nc(C3(c4ccc(-c5cnc(N)nc5)cc4)CCC3)no2)c1 [Example 49, 5-(4-{1-[5-(3-Methoxy-phenyl)-1,2,4-oxadiazol-3-yl]-cyclobutyl}-phenyl)-pyrimidin-2-ylamine] | 660 | 3.7
COc1ccc(-c2nc(C3(c4ccc(-c5cnc(N)nc5)cc4)CCC3)no2)cc1OC [Example 50, 5-(4-{1-[5-(3,4-Dimethoxy-phenyl)-1,2,4-oxadiazol-3-yl]-cyclobutyl}-phenyl)-pyrimidin-2-ylamine] | 490 | 4.4
Nc1ncc(-c2ccc(C3(c4noc(-c5ccc(F)cc5)n4)CCC3)cc2)cn1 [Example 51, 5-(4-{1-[5-(4-Fluoro-phenyl)-1,2,4-oxadiazol-3-yl]-cyclobutyl}-phenyl)-pyrimidin-2-ylamine] | 1000 | 7
Nc1ncc(-c2ccc(C3(c4noc(-c5cccc(F)c5)n4)CCC3)cc2)cn1 [Example 52, 5-(4-{1-[5-(3-Fluoro-phenyl)-1,2,4-oxadiazol-3-yl]-cyclobutyl}-phenyl)-pyrimidin-2-ylamine] | 780 | 4.3
Cc1ccc(-c2nc(C3(c4ccc(-c5cnc(N)nc5)cc4)CCC3)no2)cc1Cl [Example 53, 5-(4-{1-[5-(3-Chloro-4-methyl-phenyl)-1,2,4-oxadiazol-3-yl]-cyclobutyl}-phenyl)-pyrimidin-2-ylamine] | 580 | 6.2
CC(C)(C)c1ccc(-c2nc(C3(c4ccc(-c5cnc(N)nc5)cc4)CCC3)no2)cc1 [Example 54, 5-(4-{1-[5-(4-tert-Butyl-phenyl)-1,2,4-oxadiazol-3-yl]-cyclobutyl}-phenyl)-pyrimidin-2-ylamine] | 1200 | 15
Nc1ncc(-c2ccc(C3(c4noc(-c5ccc(Cl)c(Cl)c5)n4)CCC3)cc2)cn1 [Example 55, 5-(4-{1-[5-(3,4-Dichloro-phenyl)-1,2,4-oxadiazol-3-yl]-cyclobutyl}-phenyl)-pyrimidin-2-ylamine] | 1100 | 13
Nc1ncc(-c2ccc(C3(c4noc(-c5ccnc(Cl)c5)n4)CCC3)cc2)cn1 [Example 56, 5-(4-{1-[5-(2-Chloro-pyridin-4-yl)-1,2,4-oxadiazol-3-yl]-cyclobutyl}-phenyl)-pyrimidin-2-ylamine] | 990 | 8.4
Cn1nccc1-c1nc(C2(c3ccc(-c4cnc(N)nc4)cc3)CCC2)no1 [Example 57, 5-(4-{1-[5-(2-methyl-2H-pyrazol-3-yl)-1,2,4-oxadiazol-3-yl]-cyclobutyl}-phenyl)-pyrimidin-2-ylamine] | 45 | 1.8
Cc1cc(C)c(-c2nc(C3(c4ccc(-c5cnc(N)nc5)cc4)CCC3)no2)c(=O)[nH]1 [Example 58, 3-(3-{1-[4-(2-Amino-pyrimidin-5-yl)-phenyl]-cyclobutyl}-1,2,4-oxadiazol-5-yl)-4,6-dimethyl-1H-pyridin-2-one] | > 5000 | 2
Nc1ncc(-c2ccc(C3(c4noc(-c5ccc(C(=O)N6CCC(F)(F)CC6)nc5)n4)CCC3)cc2)cn1 [Example 59, [5-(3-{1-[4-(2-amino-pyrimidin-5-yl)-phenyl]-cyclobutyl}-1,2,4-oxadiazol-5-yl)-pyridin-2-yl]-(4,4-difluoro-piperidin-1-yl)-methanone] | 130 | 5.1
Nc1ncc(-c2ccc(C3(c4noc(-c5ccc(C(=O)N6CCC(O)C6)nc5)n4)CCC3)cc2)cn1 (stereo not shown) [Example 60, [5-(3-{1-[4-(2-Amino-pyrimidin-5-yl)-phenyl]-cyclobutyl]-1,2,4-oxadiazol-5-yl)-pyridin-2-yl]-(3-hydroxy-pyrrolidin-1-yl)-methanone] | 150 | 4.7
CN(CCO)c1cnc(-c2nc(C3(c4ccc(-c5cnc(N)nc5)cc4)CCC3)no2)cn1 [Example 61, 2-{[5-(3-{1-[4-(2-amino-pyrimidin-5-yl)-phenyl]-cyclobutyl}-1,2,4-oxadiazol-5-yl)-pyrazin-2-yl]-methyl-amino}-ethanol] | 53 | 1.5
